3 molecules from paper PMC3375280 (PLoS ONE, 2012) can be followed below.

Each structure is given as a SMILES string. Changes are numbered by the printed parent chain.

In test [1] the target is T1, AT1 V116A mutant receptor (Rattus norvegicus, UniProt P25095, V116A).
T1 construct: expressed in transfected cells; host or cells: COS1
T1 sequence (P25095 1-359 V116A): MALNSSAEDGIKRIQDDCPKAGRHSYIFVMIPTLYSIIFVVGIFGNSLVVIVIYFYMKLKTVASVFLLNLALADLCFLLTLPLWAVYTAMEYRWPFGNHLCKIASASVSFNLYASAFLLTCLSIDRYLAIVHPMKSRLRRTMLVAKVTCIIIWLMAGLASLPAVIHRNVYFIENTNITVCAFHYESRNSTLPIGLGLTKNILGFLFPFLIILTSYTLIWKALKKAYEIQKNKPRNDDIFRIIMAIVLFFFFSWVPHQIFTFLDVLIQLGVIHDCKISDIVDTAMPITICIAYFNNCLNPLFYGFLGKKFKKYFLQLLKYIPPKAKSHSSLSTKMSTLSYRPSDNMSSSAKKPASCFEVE
The test is described as follows: competition binding, V116A mutant. The settings on record: for Kd ratio relative to WT (in parentheses): V116A / WT; for Kd: V116A, COS1 membranes, read-out: Binding affinity (Kd). Here is the method:
(§1) The Kd and Bmax values of receptor binding were determined by ^125I-[Sar^1, Ile^8] […] Membranes expressing the WT or mutant AT1 receptors were incubated with 100 pM ^125I-[Sar^1, Ile^8] […] The binding reaction was terminated by filtering the incubation mixture through Whatman GF/C glass filters, and the residues were extensively washed further with binding buffer. The bound ligand fraction was determined from the counts per minute (cpm) remaining on the membrane. Binding kinetics values were determined as previously described.

Test [2] has as its target T2, AT1 wild-type (WT) receptor (Rattus norvegicus, UniProt P25095).
T2 construct: expressed in transfected cells; host or cells: COS1
T2 sequence (P25095 1-359): T1 sequence (P25095 1-359 V116A) with A116V
Description: 125I-[Sar1,Ile8]AngII competition binding, wild-type receptor. The settings on record: for Kd / Kd ratio relative to olmesartan (in parentheses): WT; for Kd: COS1 cell membranes, 100 pM 125I-[Sar1,Ile8]AngII, 1 h 22°C, read-out: Binding affinity (Kd); for Kd ratio relative to olmesartan (in parentheses): compound Kd / olmesartan Kd. Here is the method: as §1

Test [3] deals with T3, AT1 S115A mutant receptor (Rattus norvegicus, UniProt P25095, S115A).
T3 construct: expressed in transfected cells; host or cells: COS1
T3 sequence (P25095 1-359 S115A): T1 sequence (P25095 1-359 V116A) with S115A, A116V
The test is described as follows: competition binding, S115A mutant. Particulars: for Kd ratio relative to WT (in parentheses): S115A / WT; for Kd: S115A, COS1 membranes, read-out: Binding affinity (Kd). How it is done:
as §1

For test [4], the target named is T4, AT1 C76A/A114C/C289A mutant receptor (Rattus norvegicus, UniProt P25095, A114C/C289A/C76A).
T4 construct: expressed in transfected cells; host or cells: COS1 cells (membranes)
T4 sequence (P25095 1-359 C76A/A114C/C289A): T1 sequence (P25095 1-359 V116A) with C76A, A114C, A116V, C289A
The test is described as follows: competition binding, C76A/A114C/C289A mutant. Particulars: for Kd ratio relative to WT (in parentheses): C76A/A114C/C289A / WT; for Kd: C76A/A114C/C289A, COS1 membranes, read-out: Binding affinity (Kd). Here is the method: as §1

For test [5], the target named is T5, AT1 S107A mutant receptor (Rattus norvegicus, UniProt P25095, S107A).
T5 construct: expressed in transfected cells; host or cells: COS1
T5 sequence (P25095 1-359 S107A): T1 sequence (P25095 1-359 V116A) with S107A, A116V
Description: competition binding, S107A mutant. The settings on record: for Kd ratio relative to WT (in parentheses): S107A / WT; for Kd: S107A, COS1 membranes, read-out: Binding affinity (Kd). How it is done: as §1

Test [6] concerns the target T6, AT1 C76A/L112C/C289A mutant receptor (Rattus norvegicus, UniProt P25095, C289A/C76A/L112C).
T6 construct: expressed in transfected cells; host or cells: COS1
T6 sequence (P25095 1-359 C76A/L112C/C289A): T1 sequence (P25095 1-359 V116A) with C76A, L112C, A116V, C289A
Description: competition binding, C76A/L112C/C289A mutant. The settings on record: for Kd ratio relative to WT (in parentheses): C76A/L112C/C289A / WT; for Kd: C76A/L112C/C289A, COS1 membranes, read-out: Binding affinity (Kd). How it is done: as §1

With `CCCc1nc(C(C)(C)O)c(C(N)=O)n1Cc1ccc(-c2cc(Cc3ccc(O)cc3)ccc2-c2nnn[nH]2)cc1` [R794847], the “Kd ratio relative to WT (in parentheses)” value in test [1] is reported as 45 fold; in test [3] it was 3.1 fold; in test [4], 2.7 fold; in test [5], 1.2 fold; in test [6], 1.3 fold. Besides, the Kd – broadly, the free concentration of one partner at which half of the binding sites on the other are occupied at equilibrium, for simple one-to-one binding – in test [1] is 2150 ± 802 nM; in test [2], 48 ± 12 nM; in test [3], 150 ± 41 nM; in test [4] it was 128 ± 15 nM; in test [5], 59 ± 27 nM; in test [6], 62 ± 9 nM.
On to `CCCc1nc(C(C)(C)O)c(C(=O)O)n1Cc1ccc(-c2ccccc2-c2nnn[nH]2)cc1` [Olmesartan, olmesartan, reference compound], for which the “Kd ratio relative to WT (in parentheses)” value in test [1] is recorded as 3.8 fold; in test [2] (WT / WT) it was 1.0 fold; in test [3], 1.3 fold; in test [4], 2.4 fold; in test [5] it was 1.1 fold; in test [6], 2.7 fold. Besides, the Kd in test [1] stood at 8.8 ± 1.2 nM; in test [2] it was 2.3 ± 0.8 nM; in test [3], 3.1 ± 1.7 nM; in test [4] it was 5.5 ± 2.6 nM; in test [5] it was 2.5 ± 0.5 nM; in test [6] it was 6.1 ± 2.1 nM. Moreover, in test [2], the “Kd ratio relative to olmesartan (in parentheses)” value is given as 1.0 fold.
Turning to `CCCc1nc(C(C)(C)O)c(C(N)=O)n1Cc1ccc(-c2ccccc2-c2nnn[nH]2)cc1` [R239470], the “Kd ratio relative to WT (in parentheses)” value came out at 3.2 fold in test [1]; 1.6 fold in test [3]; 2.0 fold in test [4]; 1.6 fold in test [5]; 4.0 fold in test [6]. Besides, the Kd in test [1] worked out at 2.6 ± 0.7 nM; in test [2], 0.8 ± 0.3 nM; in test [3] it was 1.3 ± 0.4 nM; in test [4] it was 1.6 ± 0.7 nM; in test [5] it was 1.3 ± 0.2 nM; in test [6] it was 3.2 ± 1.3 nM. The “Kd ratio relative to olmesartan (in parentheses)” value in test [2] is on record as 0.3 fold.
